Our source for the T/C values is PubChem BioAssay AID292 (DTP/NCI, 2004).

This experiment has as its system B6C3F1 mice, ip Sarcoma M5076, median survival T/C. Put plainly: NCI In Vivo Anticancer Drug Screen. Data for tumor model Sarcoma M5076 (intraperitoneal) in B6C3F1 mice. Conditions: endpoint: median survival time, schedule: Q04DX004 (ip), higher = longer survival. The gist of the method: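 Transplantable tumour in mice; compound-treated vs vehicle-treated groups. Read-out: survival. Value = treated/control ratio.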

[1] abbreviates: dose: 50.0 mg/kg/injection, vehicle: Klucel (hydroxypropylcellulose) (HPC).
[2] abbreviates: dose: 100.0 mg/kg/injection, vehicle: Klucel (hydroxypropylcellulose) (HPC).
Where [3] appears, read: dose: 200.0 mg/kg/injection, vehicle: Klucel (hydroxypropylcellulose) (HPC).
Setting [4] is: dose: 400.0 mg/kg/injection, vehicle: Klucel (hydroxypropylcellulose) (HPC).
[5] abbreviates: dose: 12.5 mg/kg/injection, vehicle: Klucel (hydroxypropylcellulose) (HPC).
Setting [6] is: dose: 25.0 mg/kg/injection, vehicle: Klucel (hydroxypropylcellulose) (HPC).
Where [7] appears, read: dose: 100.0 mg/kg/injection, vehicle: saline with Tween-80.
The mark [8] stands for this setting: dose: 200.0 mg/kg/injection, vehicle: saline with Tween-80.
Setting [9] is: dose: 400.0 mg/kg/injection, vehicle: saline with Tween-80.
The mark [10] stands for this setting: dose: 800.0 mg/kg/injection, vehicle: saline with Tween-80.
Where [11] appears, read: dose: 50.0 mg/kg/injection, vehicle: saline with Tween-80.
The mark [12] stands for this setting: dose: 25.0 mg/kg/injection, vehicle: saline with Tween-80.

“And” between values parts separate entries of the source, which are not always exact repeats. Equal values may be shown once. Toxic doses and inconclusive results are not listed.

As for `CN1CCN(c2ccc3nc(-c4ccc5nc(-c6ccc(O)cc6)[nH]c5c4)[nH]c3c2)CC1`, the T/C (dose: 28.0 mg/kg/injection, vehicle: saline) was 96 % of control; the T/C (dose: 56.0 mg/kg/injection, vehicle: saline) is 92 % of control; the T/C (dose: 112.0 mg/kg/injection, vehicle: saline) was 100 % of control; the T/C (dose: 225.0 mg/kg/injection, vehicle: saline) was 86 % of control.

Consider `Cc1ccc(C)c(NC(=O)C2C(=O)C(=O)N(c3cc(C)ccc3C)C2=O)c1` (stereo not drawn), for which the T/C was 102 % of control under setting [1], 100 % of control under setting [2], 108 % of control under setting [3] and 105 % of control under setting [4].

In the case of `CN(C)CN1C(=O)S/C(=C2\C(=O)N(CN(C)C)c3ccccc32)C1=O`, the T/C is 102 % of control under setting [1], 90 % of control under setting [2] and 90 % of control under setting [3].

Regarding `COc1ccc2[nH]c3ccc4cc[n+](CCN5CCC(C6CCN(CC[n+]7ccc8ccc9[nH]c%10ccc(OC)cc%10c9c8c7)CC6)CC5)cc4c3c2c1`, the T/C reads like this: (dose: 16.0 mg/kg/injection, vehicle: water) 157 % of control; (dose: 32.0 mg/kg/injection, vehicle: water) 194 % of control.

For `CCCCCC[Se][Se]CCCCCC`, the T/C was 123 % of control (dose: 3.12 mg/kg/injection, vehicle: Klucel (hydroxypropylcellulose) (HPC)); 106 % of control (dose: 6.25 mg/kg/injection, vehicle: Klucel (hydroxypropylcellulose) (HPC)); 114 % of control under setting [5]; 115 % of control under setting [6].

As for `O=c1[nH]c(=O)n(C2CC(O)C(CO)O2)cc1I` (stereo not drawn), the T/C is, setting by setting: under setting [7], 103 % of control and 117 % of control; under setting [8], 108 % of control and 118 % of control; under setting [9], 122 % of control; under setting [10], 158 % of control; (dose: 1600.0 mg/kg/injection, vehicle: saline with Tween-80) 243 % of control.

Take `CCN(CC)CC(=O)O[C@]1(CC)C(=O)OCc2c1cc1n(c2=O)Cc2cc3ccccc3nc2-1`: the T/C (dose: 2.0 mg/kg/injection, vehicle: water) was 106 % of control and 110 % of control; the T/C (dose: 4.0 mg/kg/injection, vehicle: water) was 107 % of control and 108 % of control; the T/C (dose: 8.0 mg/kg/injection, vehicle: water) is 120 % of control and 124 % of control.

For the compound `C/C(=N\NC(=S)N1CCN(c2ccccn2)CC1)c1ccccn1`, the T/C is 98 % of control under setting [5], 103 % of control under setting [6] and 93 % of control under setting [1].

For `COc1c2c(c(O)c3c4c(c(C)cc13)C1OC3(C(OC)OC5CC(C)(O)C(OC6CC(C)(O)C(O)C(C)O6)C(C)O5)OC1C(OC)(O4)C31CO1)C(=O)C(O)CC2OC1CC(C)(O)C(OC(C)=O)C(C)O1` (stereo not drawn), the T/C is 120 % of control (dose: 0.03 mg/kg/injection, vehicle: saline); 105 % of control (dose: 15.0 micrograms/kg/injection, vehicle: saline); 115 % of control (dose: 30.0 micrograms/kg/injection, vehicle: saline); 111 % of control and 118 % of control (dose: 60.0 micrograms/kg/injection, vehicle: saline); 114 % of control (dose: 120.0 micrograms/kg/injection, vehicle: saline); 115 % of control (dose: 240.0 micrograms/kg/injection, vehicle: saline).

Take `C=CC(=O)NCNC(=O)C=C`: the T/C (dose: 50.0 mg/kg/injection, vehicle: suspension in saline) was 99 % of control and the T/C (dose: 100.0 mg/kg/injection, vehicle: suspension in saline) is 115 % of control.

Regarding `CN(C)c1cc2c(nn1)Nc1ccccc1S2`, the T/C is 88 % of control under setting [11], 88 % of control under setting [7], 97 % of control under setting [8] and 90 % of control under setting [10].

On to `C=Cc1cc(OC)c2c(c1)c(=O)oc1c2cc(OC)c2c(O)ccc(C3OC(C(C)O)C(O)C3O)c21` (stereo not drawn), for which the T/C is 109 % of control under setting [1], 115 % of control under setting [2] and 110 % of control under setting [3].

For `O=C(Nc1nc(-c2ccccc2)cs1)OCC(Cl)(Cl)Cl`, the T/C under setting [12] was 103 % of control; the T/C under setting [11] was 107 % of control; the T/C under setting [7] is 94 % of control; the T/C under setting [8] was 91 % of control; the T/C under setting [9] was 91 % of control.

With `COC1C(CO)OC(n2cnc3c(=S)nc(N)[nH]c32)C1O` (stereo not drawn), the T/C is 93 % of control under setting [1], 100 % of control under setting [2] and 105 % of control under setting [3].

Regarding `CN(CN1C(=O)CCC1=O)CN1C(=O)CCC1=O`, the T/C reads like this: (dose: 50.0 mg/kg/injection, vehicle: saline) 92 % of control; (dose: 100.0 mg/kg/injection, vehicle: saline) 100 % of control; (dose: 200.0 mg/kg/injection, vehicle: saline) 96 % of control; (dose: 400.0 mg/kg/injection, vehicle: saline) 116 % of control.

As to `O=C1C=CC(=CC=C2C=CN(CCCCCCCCCCCO)C=C2)C=C1`, the T/C reads like this: (dose: 6.25 mg/kg/injection, vehicle: saline with Tween-80) 102 % of control; (dose: 12.5 mg/kg/injection, vehicle: saline with Tween-80) 109 % of control; under setting [12], 102 % of control; under setting [11], 111 % of control.

As for `COc1cccc(C2C(C#N)C(=O)NC(=O)C2C#N)c1` (stereo not drawn), the T/C is, setting by setting: under setting [1], 99 % of control; under setting [2], 102 % of control; under setting [3], 98 % of control; under setting [4], 95 % of control.
